Measurements taken from article PMC10035947, “Development of novel anilinoquinazoline-based carboxylic acids as non-classical carbonic anhydrase IX and XII inhibitors” (Journal of Enzyme Inhibition and Medicinal Chemistry, 2023).
Like-named read-outs stand apart in the source and are kept apart here.

Tests used:
Test in all cases: NCI SRB assay
Format in all cases: cell-based, human
DU-145 = settings: for CC50: read-out: LC50 (the source's name)
UACC-257 = settings: for CC50: read-out: LC50 (the source's name)
HOP-92 = settings: for CC50: read-out: LC50 (the source's name)
CCRF-CEM = settings: for GI50 / TGI / CC50: 5-dose; for CC50: read-out: LC50 (the source's name)
SK-MEL-5 = system: SK-MEL-5
SK-OV-3 = settings: for CC50: read-out: LC50 (the source's name)
HCT-15 = system: HCT-15
HT29 = system: HT29
COLO 205 = system: COLO 205
HS 578 T = settings: for CC50: Hs-578T, read-out: LC50 (the source's name)
BT-549 = system: BT-549
NCI-H322M = settings: for CC50: read-out: LC50 (the source's name)
MALME-3M = settings: for CC50: read-out: LC50 (the source's name)
[1] = Homo sapiens, HOP-92, HOP-92, 5-dose
[2] = Homo sapiens, HCT-15, HCT-15, 5-dose
[3] = Homo sapiens, HT-29, HT29, 5-dose

Compound: Cc1ccc(-c2nc(Nc3ccccc3C(=O)O)c3ccccc3n2)cc1 [6b, 2-((2-(p-Tolyl)quinazolin-4-yl)amino)benzoic acid]
- TGI (DU-145; DU-145, 5-dose): <100 µM
- TGI (DU-145; DU-145, 5-dose, listed as D - 835857): > 1.00E-4 Molar
- CC50 (DU-145; DU-145, 5-dose): < 100 µM
- CC50 (DU-145; Homo sapiens, DU-145, DU-145, 5-dose): > 100 µM
- GI50 (DU-145; Homo sapiens, DU-145, 5-dose): 17.7 µM
- CC50 (UACC-257; Homo sapiens, UACC-257, UACC-257, 5-dose): > 100 µM
- GI50 (UACC-257; Homo sapiens, UACC-257, 5-dose): 15.3 µM
- GI% (UACC-257; UACC-257, 10 μM): 71%
- Growth Percent (UACC-257; UACC-257, 1.00E-5 Molar): 28.64%
- TGI (UACC-257; UACC-257, 5-dose): 90.3 µM
- TGI (UACC-257; UACC-257, 5-dose, listed as D - 835857): 9.03E-5 Molar
- CC50 (UACC-257; UACC-257, 5-dose): < 100 µM
- GI% (HOP-92; HOP-92, 10 μM): 120%
- Growth Percent (HOP-92; HOP-92, 1.00E-5 Molar): -19.52%
- GI50 (HOP-92; HOP-92, 5-dose): 2.9 µM
- TGI (HOP-92; HOP-92, 5-dose): 29.3 µM
- TGI (HOP-92; HOP-92, 5-dose, listed as D - 835857): 2.93E-5 Molar
- CC50 (HOP-92; HOP-92, 5-dose): < 100 µM
- GI50 (HOP-92; [1]): 2.85 µM
- CC50 (HOP-92; [1]): > 100 µM
- GI% (CCRF-CEM; 10 μM): 87%
- Growth Percent (CCRF-CEM; 1.00E-5 Molar): 12.80%
- GI50 (CCRF-CEM): 5.7 µM
- TGI (CCRF-CEM): <100 µM
- TGI (CCRF-CEM; listed as D - 835857): > 1.00E-4 Molar
- CC50 (CCRF-CEM): < 100 µM
- GI50 (CCRF-CEM; Homo sapiens): 5.72 µM
- CC50 (CCRF-CEM; Homo sapiens): > 100 µM
- GI50 (SK-MEL-5; Homo sapiens, SK-MEL-5, SK-MEL-5, 5-dose): 5.32 µM
- CC50 (SK-MEL-5; Homo sapiens, SK-MEL-5, 5-dose, read-out: LC50 (the source's name)): 57.5 µM
- GI% (SK-MEL-5; SK-MEL-5, 10 μM): 124%
- Growth Percent (SK-MEL-5; SK-MEL-5, 1.00E-5 Molar): -24.79%
- GI50 (SK-MEL-5; SK-MEL-5, 5-dose): 5.3 µM
- TGI (SK-MEL-5; SK-MEL-5, 5-dose): 20.3 µM
- TGI (SK-MEL-5; SK-MEL-5, 5-dose, listed as D - 835857): 2.03E-5 Molar
- CC50 (SK-OV-3; Homo sapiens, SK-OV-3, SK-OV-3, 5-dose): > 100 µM
- GI50 (SK-OV-3; Homo sapiens, SK-OV-3, 5-dose): 11.9 µM
- GI% (SK-OV-3; SK-OV-3, 10 μM): 69%
- Growth Percent (SK-OV-3; SK-OV-3, 1.00E-5 Molar): 31.32%
- TGI (SK-OV-3; SK-OV-3, 5-dose): 55.3 µM
- TGI (SK-OV-3; SK-OV-3, 5-dose, listed as D - 835857): 5.53E-5 Molar
- CC50 (SK-OV-3; SK-OV-3, 5-dose): < 100 µM
- GI% (HCT-15; HCT-15, 10 μM): 95%
- Growth Percent (HCT-15; HCT-15, 1.00E-5 Molar): 4.66%
- GI50 (HCT-15; HCT-15, 5-dose): 5.8 µM
- LC50 (HCT-15; HCT-15, 5-dose): < 100 µM
- TGI (HCT-15; HCT-15, 5-dose): 28.7 µM
- TGI (HCT-15; HCT-15, 5-dose, listed as D - 835857): 2.87E-5 Molar
- GI50 (HCT-15; [2]): 5.82 µM
- LC50 (HCT-15; [2]): > 100 µM
- GI% (HT29; HT29, 10 μM): 82%
- Growth Percent (HT29; HT29, 1.00E-5 Molar): 17.79%
- LC50 (50% lethal concentration) (HT29; HT29, 5-dose): < 100 µM
- TGI (HT29; HT29, 5-dose): <100 µM
- TGI (HT29; HT29, 5-dose, listed as D - 835857): > 1.00E-4 Molar
- GI50 (HT29; [3]): 17.9 µM
- LC50 (50% lethal concentration) (HT29; [3]): > 100 µM
- GI% (COLO 205; COLO 205, 10 μM): – (Only GI% higher than 20% are shown)
- Growth Percent (COLO 205; COLO 205, 1.00E-5 Molar): 80.94%
- TGI (COLO 205; COLO 205, 5-dose): 41.0 µM
- TGI (COLO 205; COLO 205, 5-dose, listed as D - 835857): 4.10E-5 Molar
- GI50 (COLO 205; Homo sapiens, COLO 205, 5-dose): 17.8 µM
- LC50 (concentration killing 50% of cells) (COLO 205; Homo sapiens, COLO 205, 5-dose): 94.1 µM
- GI% (HS 578 T; HS 578 T, 10 μM): 109%
- Growth Percent (HS 578 T; HS 578T, 1.00E-5 Molar): -9.53%
- TGI (HS 578 T; HS 578 T, 5-dose): 67.0 µM
- TGI (HS 578 T; HS 578T, 5-dose): 6.70E-5 Molar
- CC50 (HS 578 T; Homo sapiens, HS 578 T, 5-dose): < 100 µM
- CC50 (HS 578 T; Homo sapiens, HS 578T, 5-dose): > 100 µM
- GI50 (HS 578 T; Homo sapiens, HS 578 T, 5-dose): 10.2 µM
- GI% (BT-549; BT-549, 10 μM): 123%
- Growth Percent (BT-549; BT-549, 1.00E-5 Molar): -23.53%
- TGI (BT-549; BT-549, 5-dose): 33.8 µM
- TGI (BT-549; BT-549, 5-dose, listed as D - 835857): 3.38E-5 Molar
- GI50 (BT-549; Homo sapiens, BT-549, 5-dose): 14.6 µM
- CC50 (BT-549; Homo sapiens, BT-549, 5-dose, read-out: LC50 (the source's name)): 78.1 µM
- GI% (NCI-H322M; 10 μM): 66%
- Growth Percent (NCI-H322M; 1.00E-5 Molar): 33.77%
- TGI (NCI-H322M; 5-dose): <100 µM
- TGI (NCI-H322M; 5-dose, listed as D - 835857): > 1.00E-4 Molar
- CC50 (NCI-H322M; 5-dose): < 100 µM
- GI50 (NCI-H322M; Homo sapiens, 5-dose): 13.6 µM
- CC50 (NCI-H322M; Homo sapiens, 5-dose): > 100 µM
- GI% (MALME-3M; 10 μM): 80%
- Growth Percent (MALME-3M; 1.00E-5 Molar): 19.56%
- TGI (MALME-3M; 5-dose): 64.5 µM
- TGI (MALME-3M; 5-dose, listed as D - 835857): 6.45E-5 Molar
- CC50 (MALME-3M; 5-dose): < 100 µM
- GI50 (MALME-3M; Homo sapiens, 5-dose): 15.6 µM
- CC50 (MALME-3M; Homo sapiens, Malme-3M, 5-dose): > 100 µM
